Reference: article PMC3948622, “Docking, Synthesis and Antiproliferative Activity of N-Acylhydrazone Derivatives Designed as Combretastatin A4 Analogues” (PLoS ONE, 2014)
pIC50: −log10 of the molar value. In brackets after ≈: the same amount, converted by molar mass. Like-named read-outs stand apart in the source and are kept apart here.

Assays:
[1] = tested on: OVCAR-8 (ovaries adenocarcinoma); assay: In vitro antiproliferative MTT assay, OVCAR-8; format: cell-based; details: for pIC50: Homo sapiens, OVCAR-8, Table 2, MTT; for SI Lymphocyte/ OVCAR-8: IC50 for human lymphocytes/IC50 for cancer cell line
Protocol: (§1) The antiproliferative activity of compounds 5a–r was determined based on an MTT assay and using CA-4 as standard against the tumor cell lines: HL-60 (human leukemia), SF-295 (human glioblastoma), MDA-MB435 (melanoma), PC3M (prostate cancer), OVCAR-8 (ovaries adenocarcinoma), NCI-H258M (pulmonary bronchio-alveolar carcinoma) and HCT-8 (adenocarcinoma ileocecal) (Table 2). To determine the selectivity index of compounds 5a–r, their antiproliferative profile was also evaluated toward human lymphocytes (Table 2).
(§2) Compounds (0.009–5 µg/mL) were tested for cytotoxic activity against selected cancer cell lines: SF-295 (glioblastoma), HCT-8 (colon), MDAMB-435 (melanoma), HL60 (leukemia), PC3M (prostate cancer), OVCAR-8 (ovaries adenocarcinoma) and NCI-H258M (pulmonary bronchio-alveolar carcinoma). All cell lines were kindly obtained from the National Cancer Institute (Bethesda, MD, USA).Tumor cell proliferation was quantified through the ability of living cells to reduce the yellow dye 3-(4,5-dimethyl-2-thiazolyl)-2,5-diphenyl-2H-tetrazolium bromide (MTT, Sigma Aldrich)) to a purple formazan product and absorbance was measured at 595 nm (DTX-880, Beckman Coulter).

MDA-MB435 (melanoma) [2] = assay: In vitro antiproliferative MTT assay, MDA-MB435; format: cell-based; details: Homo sapiens, MDA-MB-435
MDA-MB435 (melanoma) [3] = assay: In vitro antiproliferative MTT assay, MDA-MB435; format: cell-based; details: IC50 for human lymphocytes/IC50 for cancer cell line
Protocol: as §1, §2

[4] = tested on: HCT-8 (adenocarcinoma ileocecal); assay: In vitro antiproliferative MTT assay, HCT-8; format: cell-based; details: for pIC50: Homo sapiens, HCT-8; for SI Lymphocyte/ HCT-8: IC50 for human lymphocytes/IC50 for cancer cell line
Protocol: as §1, §2

[5] = tested on: SF-295 (human glioblastoma); assay: In vitro antiproliferative MTT assay, SF-295; format: cell-based; details: for pIC50: Homo sapiens, SF-295, read-out: IC50 SF295; for SI Lymphocyte/ SF-295: IC50 for human lymphocytes/IC50 for cancer cell line
Protocol: as §1, §2

HL-60 (human leukemia) = assay: In vitro antiproliferative MTT assay, HL-60; format: cell-based; details: for pIC50: Homo sapiens, HL-60; for SI Lymphocyte/ HL-60: IC50 for human lymphocytes/IC50 for cancer cell line
Protocol: as §1, §2

human lymphocytes = assay: In vitro antiproliferative assay, human lymphocytes; format: cell-based; details: Lymphocyte, Table 2
Protocol: as §1
To investigate the selective cytotoxic activity of the N-acylhydrazones derivatives (5a–r), their antiproliferative potency was also assessed toward human lymphocytes and the results were compared to the data from CA-4 ([…]). The selectivity index (SI), which was the IC50 for human lymphocytes/IC50 for cancer cell lines after treatment with CA-4 and N-acylhydrazones (5a–r), was calculated, as depicted in Table 3. […] The best comparative selectivity indices (CA-4 vs 5b) were obtained from the SF-295 (SI = 13), MDA-MB435 (SI = 42) and NCI-H258M (SI = 9.5) tumor cell lines, and the worst results were found for OVCAR-8 (SI = 0.5).

[6] = tested on: NCI-H358M (pulmonary bronchio-alveolar carcinoma); assay: In vitro antiproliferative MTT assay, NCI-H358M; format: cell-based; details: for SI Lymphocyte/ NCI-H358M: IC50 for human lymphocytes/IC50 for cancer cell line; for pIC50: NCI-H358M, Table 2, MTT
PC3M (prostate cancer) = assay: In vitro antiproliferative MTT assay, PC3M; format: cell-based; details: for pIC50: Homo sapiens, PC-3M, Table 2, MTT; for SI Lymphocyte/ PC3M: IC50 for human lymphocytes/IC50 for cancer cell line
Protocol: as §1, §2

[7] = Aqueous solubility assay by ultraviolet spectroscopy; format: physicochemical; details: water (saturated aqueous solution), thermodynamic from solid, 2 hours at 37°C, read-out: Aq. Solubility
Protocol: Ultraviolet spectroscopy was performed using Femto spectrophotometer. The wavelength used in solubility assay was determined by the -λ max characteristic of each compound. Spectra were analyzed in Femtoscan software. Mass spectrometry was obtained by positive ionization at Bruker AmaZon SL and data analyzed in Compass 1.3.SR2 software.
The solubility assay was performed considering the absorptivity of compounds in ultraviolet spectroscopy as described by Schneider and coworkers. The assay wavelength was determined by the λ max characteristic of each compound.
Saturated aqueous solutions were prepared (0.01 mg/mL) and were kept under stirring for 2 hours at 37°C. The supernatant was filtered in 0,45 µm filters and transferred to a quartz cuvette (10 mm) to spectra acquisition.
Solubility was determined by linear regression using as graph plots, solutions prepared by dilutions of the original solution in methanol. The data were obtained in triplicates and the mean values were used to the graph plots. The correlation coefficient (R^2) values were between 0.9972 and 0.9999.

| Structure (SMILES) | pIC50 [1] | SI Lymphocyte/ OVCAR-8 [1] | melting point [°C] | pIC50 (MDA-MB435 (melanoma) [2]; Table 2, MTT) | SI Lymphocyte/ MDA-MB345 (MDA-MB435 (melanoma) [3]) | pIC50 ([4]; Table 2, MTT) | SI Lymphocyte/ HCT-8 [4] | pIC50 ([5]; Table 2, MTT) | SI Lymphocyte/ SF-295 [5] | pIC50 (HL-60 (human leukemia); Table 2, MTT) | SI Lymphocyte/ HL-60 (HL-60 (human leukemia)) | pIC50 (human lymphocytes) | SI Lymphocyte/ NCI-H358M [6] | pIC50 [6] | pIC50 (PC3M (prostate cancer)) | SI Lymphocyte/ PC3M (PC3M (prostate cancer)) | solubility at 2 h [7] [µg/mL] | other results |
| --- | --- | --- | --- | --- | --- | --- | --- | --- | --- | --- | --- | --- | --- | --- | --- | --- | --- | --- |
| COc1cc(C(=O)N/N=C/c2ccc(O)cc2)cc(OC)c1OC [Compound 5d, (E)-N′-(4-hydroxybenzylidene)-3,4,5-trimetoxybenzohydrazide] | 5.21 | 2.22±0.02 | 189 | 6.06 | 16.06±0.86 | 5.18 | 2.07±0.07 | 4.80 | 0.82±0.02 | 5.58 | 5.15±0.05 | 4.87 | 1.16±0.06 | 4.93 | 5.34 | 2.96±0.86 | 15 (≈ 45.4 µM) |  |
| COc1cc(C(=O)N/N=C/c2cc(C(C)(C)C)c(O)c(C(C)(C)C)c2)cc(OC)c1OC [Compound 5k, (E)-N′-(3,5-di-tert-butyl-4hydroxybenzylidene)-3,4,5-trimetoxybenzohydrazide] | < 4.60 | 1 | 222 to 224 | < 4.60 | 1 | < 4.60 | 1 | < 4.60 | 1 | < 4.60 | 1.1 | < 4.25 | 1 | < 4.60 | < 4.60 | 1 | 0.0236 (≈ 0.0533 µM) |  |
| COc1cc(/C=N/NC(=O)c2cc(OC)c(OC)c(OC)c2)cc(OC)c1OC [Compound 5i, (E)-3,4,5-trimethoxy-N′-(3,4,5-trimethoxybenzylidene)benzohydrazide] | < 4.60 | 1 | 232 | < 4.60 | 1 | < 4.60 | 1 | < 4.60 | 1 | < 4.60 | 1 | < 4.21 | 1 | < 4.60 | < 4.60 | 1 | 0.0894 (≈ 0.221 µM) |  |
| COc1cc(C(=O)N(C)/N=C/c2ccccc2)cc(OC)c1OC [Compound 11, (E)-N′-benzylidene-3,4,5-trimethoxy-N-methylbenzohydrazide] |  |  | 71 to 73 |  |  |  |  |  |  |  |  |  |  |  |  |  |  | pIC50 (MDA-MB435 (melanoma) [2]; Table 4): 5.72; pIC50 ([4]; Table 4): 6.27; pIC50 ([5]; Table 4): 5.42; pIC50 (HL-60 (human leukemia); Table 4): 7.52 |
| COc1cc(C(=O)N/N=C/c2ccc3c(c2)OCO3)cc(OC)c1OC [Compound 5h, (E)-N′-(benzo[d][1], [3]dioxol-5-ylmethylene)-3,4,5-trimetoxybenzohydrazide] | 5.96 | 1.16±0.04 | 222 to 223 | 6.96 | 13.17±1.37 | 4.25 | 0.02±0.002 | 6.07 | 1.47±0.02 | 5.51 | 0.43±0.01 | 5.88 | 0.62±0.02 | 5.67 | 5.94 | 1.14±0.06 | 1.34 (≈ 3.74 µM) |  |
| COc1cc(C(=O)N/N=C/c2ccc(Cl)cc2)cc(OC)c1OC [Compound 5q, (E)-N′-(4-chlorobenzylidene)-3,4,5-trimetoxybenzohyidrazide] | 7.62 | 2.75±0.25 | 187 to 188 | 7.74 | 3.07±0.22 | 7.34 | 1.25±0.05 | 7.14 | 0.85±0.05 | 7.44 | 1.85±0.15 | 7.22 | 0.05±0.005 | 5.98 | 7.56 | 2.10±0.10 | 28.4 (≈ 81.4 µM) |  |
| COc1cc(C(=O)N/N=C/c2ccc(O)c(O)c2)cc(OC)c1OC [Compound 5e, (E)-N′-(3,4-dihydroxybenzylidene)-3,4,5-trimetoxybenzohydrazide] | < 4.60 | 0.2±0.00 | 160 | 4.93 | 0.06±0.00 | < 4.60 |  | < 4.60 |  | 5.03 | 0.82±0.02 | 5.13 | 0.30±0.00 | < 4.60 | 4.61 | 0.30±0.005 | 3.94 (≈ 11.4 µM) |  |
| COc1cc(C(=O)N/N=C/c2cccc(O)c2)cc(OC)c1OC [Compound 5c, (E)-N′-(3-hydroxybenzylidene)-3,4,5-trimetoxybenzohydrazide] | 5.24 | 0.80±0.005 | 227 to 229 | 6.92 | 32.50±4.50 | 5.37 | 0.96±0.35 | 4.88 | 0.32±0.02 | 5.79 | 2.60±0.10 | 5.35 | 0.48±0.01 | 5.02 | 5.12 | 0.58±0.01 | 5.68 (≈ 17.2 µM) |  |
| COc1ccc(/C=C\c2cc(OC)c(OC)c(OC)c2)cc1O [CA-4, Combretastatin A4] | 9.43 |  |  | 8.10 | 0.42±0.02 | 8.28 | 0.59±0.01 | 8.21 | 0.44±0.04 | 8.68 | 1.44±0.05 | 8.49 | 0.52±0.12 | 8.10 | 8.33 |  | 5.44 (≈ 17.2 µM) |  |
| COc1cc(C(=O)N/N=C/c2ccc(C)cc2)cc(OC)c1OC [Compound 5o, (E)-3,4,5-trimethoxy-N′-(4-methylbenzylidene) benzohydrazide] | 8.09 | 0.91±0.01 |  | 7.46 | 0.21±0.01 | 7.34 | 0.15±0.005 | 7.03 | 0.08±0.00 | 8.32 | 1.59±0.09 | 8.14 | 0.009±0.001 | 6.05 | 7.90 | 0.56±0.04 | 6.93 (≈ 21.1 µM) |  |
| COc1cc(C(=O)N/N=C/c2ccc(Br)cc2)cc(OC)c1OC [Compound 5r, (E)-N′-(4-bromobenzylidene) - 3,4,5-trimetoxybenzohyidrazide] | 8.14 | 4.02±0.28 |  | 7.74 | 1.81 | 7.66 | 1.57±0.17 | 7.23 | 0.49±0.05 | 7.96 | 3.07±0.83 | 7.50 | 0.19±0.01 | 6.78 | 7.90 | 2.29±0.20 | 0.262 (≈ 0.666 µM) |  |
